Legend:
[1] = system: methicillin-resistant human pathogens; conditions: ref De Zotti et al., 2009; cited from earlier work
[2] = parameters: method as in De Zotti et al., 2009; conditions: ref De Zotti et al., 2009; cited from earlier work
[3] = system: Solanum lycopersicum cv. Micro-Tom leaves; assay: ROS detection with H2DCFDA on tomato leaves; conditions: 50 μM in water, 10-μl droplets on abaxial surface of detached Micro-Tom leaves; 24 and 48 h; H2DCFDA fluorescence microscopy
[4] = Hydrophilicity evaluated from HPLC retention times; type: physicochemical; conditions: comparison to native Trichogin GA IV, C18 column Phenomenex Jupiter 5 μm, 300 Å, 250 × 4.5 mm, gradient 60%–100% B in 30 min, A H2O/CH3CN 9:1 0.05% TFA, B CH3CN/H2O 9:1 0.05% TFA

Compound | Antibacterial activity against methicillin-resistant human pathogens [1] | Resistance to proteolysis [2] | ROS production on tomato leaves [3] | Hydrophilicity [4]
1-octanoyl-Aib-Gly-Leu-Aib-Gly-Gly-Leu-Aib-Gly-Ile-Lol [Trichogin GA IV, 11-residue lipopeptaibol naturally produced by Trichoderma longibrachiatum] | antibacterial activity | remarkable resistance to proteolysis | – | –
CCCCCCCC(=O)NC(C)(C)C(=O)NCC(=O)N[C@@H](CC(C)C)C(=O)NC(C)(C)C(=O)N[C@@H](CCCCN)C(=O)NC(C)(C)C(=O)N[C@@H](CC(C)C)C(=O)NC(C)(C)C(=O)NCC(=O)N[C@H](C(=O)N[C@@H](CC(C)C)C(N)=O)[C@@H](C)CC [Pep 6r] | – | – | only Pep 4-treated leaves showed ROS production | +
